{
  "source": "patent US10130598B2",
  "about": "“Methods and compositions for administration of 3-halopyruvate and related compounds for the treatment of cancer” (The Johns Hopkins University, priority 2008, dated 2018)",
  "key": {"SK-Hep 1 cells": {"test_system": "SK-Hep 1 cells", "test": "ATP dependent luminescence cell viability assay, SK-Hep1", "format": "cell-based", "excerpt": "(§1) The non-small cell lung cancer (NSCLC) cell line NCI-H1299, the breast cancer cell lines MCF7 and MDA MB 231 and the Hep3B, Hep2G and SK-Hep1 cells were obtained from the American Type Culture Collection (ATCC) (Manassas, Va., USA) and maintained as a monolayer culture in Eagle's minimum essential medium (MEM, Invitrogen, Gaithersburg, Md., USA) supplemented with 10% fetal bovine serum at 37 C and 5% CO2. All treatments were done in triplicate samples on 96-well plates. VX2 cells were maintained as described in Geschwind et al., Cancer Res., 62:3909-3913 (2002).\n(§2) Cytotoxicity of 3-BrPA was evaluated by the IC50 values, representing the drug concentration which depletes ATP by 50% compared to non-treated control. On day 1, cells were seeded into 96-well plates in a volume of 100 μl per well. On day 2, the medium of all wells was removed and an aliquot of 100 μl of media having serial dilutions of 3-BrPA in PBS, NaHCO3, NaOH, KOH and KHCO3 was added to the appropriate well. […] Briefly, 100 μl assay reagent was added to each well and mixed at room temperature for 2 min to develop luminescent signal. The luminescence intensity (cps) from each sample was determined with a spectrometer (Model Victor III, Perkin Elmer, Mass.). […]\n(§3) The effects on cell viability and cellular metabolism of 3-BrPA on Hep3B and VX2 cells were examined using luminescence ATP assays, as described above. […]"}, "H1299 cells": {"test_system": "H1299 cells", "test": "Trypan blue viability assay, H1299", "format": "cell-based", "excerpt": "as §1\nThe efficacy of 3-BrPA in the treatment of lung cancer cells was tested using the non-small cell lung cancer (NSCLC) cell line NCI-H1299. As described above, the cell line was grown as a monolayer in MEM (Invitrogen) supplemented with 10% fetal bovine serum (HyClone) at 37 C.° and 5% CO2, and all treatments were done in triplicate samples on 96-well plates.\nThe EC50 of 3-BrPA for H1299 cells lies between 0.08 and 0.09 mM. […] Therefore, considering that oral administration of 3-BrPA buffered in NaHCO3 is effective in prolonging survival in liver cancer models (Example 2), it is probable that oral administration of 3-BrPA buffered in NaHCO3 would also be effective in the treatment of lung cancer."}, "[1]": {"test": "Effect of 3-BrPA concentration on tolerability of oral administration", "format": "in vivo, nude mice", "details": "for Time to death (all mice died): oral", "experimental": "To determine the effect of compound concentration on the tolerable dose of 3-BrPA, a series of experiments were performed in nude mice to determine how a change in administered volume, and therefore a change 3-BrPA concentration, would influence compound efficacy and animal survival. For these experiments, 3-BrPa was administered at a dose of 200 mg/kg and a pH of 4.\nAll mice in group 1 and 2 (n=3 per group) died within 24 hours after receiving 5 mg of 3-BrPA in volumes of […], respectively."}, "HepG2 cells": {"test_system": "HepG2 cells", "test": "ATP dependent luminescence cell viability assay, HepG2", "format": "cell-based", "excerpt": "as §1, §2, §3"}, "genomic DNA": {"test_system": "genomic DNA", "test": "14C-3-BrPA incorporation into genomic DNA (scintillation counting)", "format": "cell-based", "details": "SK-Hep and Hep3B cells exposed to 14C-3-BrPA", "experimental": "Many antineoplastic chemotherapeutics are alkylating agents that exert their effect by binding to DNA and interfering with cell replication. […] Since 3-BrPA has been reported to be an alkylating agent, it was determined whether 3-BrPA is incorporated into the DNA of 3-BrPA treated cells. To accomplish this, genomic DNA was isolated from SK-Hep and Hep3B cells that had been exposed to ^14C-3-BrPA."}, "[2]": {"test_system": "Hep3B, HepG2, SK-Hep1 and VX2 cells", "test": "Annexin V apoptosis assay (flow cytometry and fluorescent microscopy)", "format": "cell-based", "experimental": "The apoptosis of 3-BrPA treated cells was evaluated using Annexin V staining and the formation of active caspase-3. Cells treated with 3-BrPA were stained with anti-Annexin V and analyzed by flow cytometry as well as fluorescent microscopy. Flow cytometry was performed using a Becton-Dickinson FACSCalibur. The gating was done based on unstained control cells, Annexin V—PE stained and 7-AAD stained control cells. For fluorescent microscopy, Annexin V staining was performed using Annexin V staining Microscopy kit (BD Biosciences, USA) according to the protocol recommended by the manufacturer. In brief, cells grown in chambered slides were treated with either 3BrPA or the vehicle, washed once with ice-cold PBS followed by two washes with binding buffer, at the end of the treatment period. Cells were then incubated with the FITC-conjugated Annexin V fluorescent antibody for 15 min followed by a gentle wash. The cells were kept in binding buffer and images were observed captured using a Zeiss Axiovert 200 Microscope (Carl Zeiss Microimaging Inc., USA). Active caspase-3, an apoptotic marker, was identified by western blot analysis. Lysates prepared from equal numbers of cells treated with different concentrations of 3BrPA were subjected to SDS-PAGE electrophoresis and immunoblotting against active (cleaved) caspase-3.\nIn order to confirm that the cytotoxic effects of 3BrPA involves cellular apoptotic pathways, Annexin V levels and Caspase-3 activation was examined in cells treated with 3-BrPA. […] Additionally, immunoblotting of cell lysates with activated-Caspase-3 specific antibodies confirmed the activation of caspase-3 during 3BrPA mediated cell death (FIG. 8)."}, "Vx-2 cell line": {"test_system": "Vx-2 cell line", "test": "ATP dependent luminescence cell viability assay, VX2", "format": "cell-based", "details": "for IC50: Vx-2, read-out: IC50 (ATP depletion)", "excerpt": "as §1\nCytotoxicity of 3-BrPA was evaluated by the IC50 values, representing the drug concentration which depletes ATP by 50% compared to non-treated control. On day 1, cells were seeded into 96-well plates in a volume of 100 μl per well. On day 2, the medium of all wells was removed and an aliquot of 100 μl of media having serial dilutions of 3-BrPA in PBS, NaHCO3, NaOH, KOH and KHCO3 was added to the appropriate well. […] Briefly, 100 μl assay reagent was added to each well and mixed at room temperature for 2 min to develop luminescent signal. The luminescence intensity (cps) from each sample was determined with a spectrometer (Model Victor III, Perkin Elmer, Mass.). Relative luminescence was calculated in proportion to the numbers of living cells per sample well. The results are expressed as the mean of three independent experiments. The intracellular ATP contents were calculated and normalized by equal cell number and expressed as the percentage of the control cells. The IC50 values were estimated graphically from dose-response plots.\nThe efficacy of 3-BrPA in the treatment of liver cancer cells was further tested using the cancer cell lines Hep3B, HepG2, SK-Hep1 and VX2. […]\nas §3"}},
  "note": "Like-named read-outs stand apart in the source and are kept apart here.",
  "data": [
    {"smiles": "O=C(O)C(=O)CBr", "note": "[3-BrPA, 3-bromopyruvate]", "values": [
      {"measurement": "Level of ATP", "setting": "SK-Hep 1 cells; SK-Hep1, 3, 24, 48 hours", "value": "dose and time dependent decrease"},
      {"measurement": "IC50", "setting": "SK-Hep 1 cells; SK-Hep 1, at 48 hours, read-out: IC50 (ATP depletion)", "value": 125, "unit": "µM"},
      {"measurement": "Cells died", "setting": "H1299 cells; 0.1 mM, within 3 hours", "value": "more than 80%"},
      {"measurement": "Cell death", "setting": "H1299 cells; 0.2 mM", "value": 100, "unit": "%"},
      {"measurement": "EC50 compared with EC50 of 3-BrPA for VX2 liver cancer cells", "setting": "H1299 cells; H1299", "value": "lower"},
      {"measurement": "Viability (trypan blue)", "setting": "H1299 cells; H1299", "value": "dose and time dependent decrease in viability"},
      {"measurement": "Time to death (all mice died)", "setting": "[1]; group 1: 5 mg (200 mg/kg, pH 4) in a volume of 50 ml", "value": "≤ 24", "unit": "h"},
      {"measurement": "Time to death (all mice died)", "setting": "[1]; group 2: 5 mg (200 mg/kg, pH 4) in a volume of 100 ml", "value": "≤ 24", "unit": "h"},
      {"measurement": "Tolerability of daily oral administration", "setting": "[1]; group 3: 200 mg/kg, pH 4, volume of 150 ml", "value": "did not show any signs of discomfort"},
      {"measurement": "Tolerability of daily oral administration", "setting": "[1]; group 4: 200 mg/kg, pH 4, volume of 200 ml", "value": "did not show any signs of discomfort"},
      {"measurement": "Tolerability of daily oral administration", "setting": "[1]; group 5: 200 mg/kg, pH 4, volume of 300 ml", "value": "did not show any signs of discomfort"},
      {"measurement": "Level of ATP", "setting": "HepG2 cells; 3, 24, 48 hours", "value": "dose and time dependent decrease"},
      {"measurement": "IC50", "setting": "HepG2 cells; at 48 hours, read-out: IC50 (ATP depletion)", "value": 125, "unit": "µM"},
      {"measurement": "14C incorporation into genomic DNA", "setting": "genomic DNA", "value": "no evidence of ^14C incorporation"},
      {"measurement": "Annexin V positive cells (flow cytometry)", "setting": "[2]; Annexin V-PE and 7-AAD staining, 100 and 200 μM", "value": "dose dependent increase"},
      {"measurement": "Number of apoptotic cells compared with control", "setting": "[2]; all cell lines, after 2 hours of treatment, 200 μM", "value": "significant increase"},
      {"measurement": "Annexin V staining (photomicrographs)", "setting": "[2]; treated vs control", "value": "elevated levels of Annexin V"},
      {"measurement": "Level of ATP", "setting": "Vx-2 cell line; VX2, 3, 24, 48 hours", "value": "dose and time dependent decrease"},
      {"measurement": "IC50", "setting": "Vx-2 cell line; at 48 hours", "value": 50, "unit": "µM"},
      {"measurement": "IC50", "setting": "Vx-2 cell line; treatment time not given", "value": 60, "unit": "µM"}
    ]}
  ]
}
